Entries after “also recorded” stand apart in the source; their conditions may differ. Read-outs that look alike come from different tables or passages of the source.

One series has as its system MSLN-negative cell lines. Description: In vitro cytotoxicity (IC50, Crystal Violet) on MSLN-negative cell lines (Example 11). The format is cell-based. As to conditions: for IC50: read-out: In vitro cell based potency, IC50. The procedure:
Plates were incubated at 37° C. 5% CO2 for an additional 5 days. […] Plates were read at 570 nm.

The test system of series [1] is MSLN-expressing CHO cells. Briefly: ADCC activity, luciferase assay with Jurkat-Effector cells. The format is cell-based. The procedure:
MSLN-expressing CHO cells were thawed and seeded 1.000 cells/well (25 μL) in 96-well tissue culture plates in complete RPMI-4% Ultralow IgG FBS. […] 6,000 Jurkat-Effector cells (Promega) were thawed and added (25 μL) to the cell plate, and the plate was incubated at 37° C. 5% CO2 for 18-22 hours.
Luciferase assay reagent was thawed in the dark. 75 μL of luciferase assay reagent was added to each well, plates were shaken for 30 sec on a plate shaker. Plates were read on a luminometer after 5 min incubation.

Series [2] has as its system human gastric cancer NCI-N87 xenograft. Description: Human gastric cancer NCI-N87 xenograft model (Example 15). The series is classed as in vivo, mouse. As to conditions: 5 mg/kg. The procedure:
(§1) 100 μL/mouse of the mixture was injected subcutaneously.
(In general: Xenograft models place foreign cells or tissue in a host animal.)

For series [3], the system named is human mesothelioma HAY xenograft. Description: Human mesothelioma HAY xenograft model (Example 16). The format is in vivo, mouse. Particulars: 5 mg/kg. As to the method:
as §1

Series [4] has as its system human mesothelioma PDX Meso7212. Description: Human mesothelioma PDX model Meso7212 (Example 17). The format is in vivo, mouse. As to conditions: 10 mg/kg single dose i.v. As to the method: Xenotransplantation: On day 0. Meso 7212 tumors were removed from the five donor mice under sterile conditions.
Experimental procedure: After the xenotransplantation, the engraftment and the propagation of the tumor in the mice were controlled at least twice weekly by palpation. When the tumor was palpable, the measurements of tumor diameters were performed with a digital caliper (Mitutoyo).
From the first treatment day onwards, tumor volumes and body weights were recorded twice weekly. The animal welfare was controlled twice daily.
Treatment: All agents were administered intravenously as a single dose on the day of randomization. Animals in the control group were treated with DPBS in the same manner.

The test system of a further series is human NSCLC PDX LXFA-586. Description: Human NSCLC PDX model LXFA-586. Particulars: 25 mg/kg single dose i.v. The source says: (§2) Animals: Female NMRI nu/nu mice, 4 to 6 weeks of age.
Xenotransplantation: LXFA-586 established growing tumor (T2N1M0) from a primary non-small cell lung adenocarcinoma human patient.
Experimental procedure: Animals were monitored until the tumor implants reached the study volume criteria of 50-250 mm^3 (e.g., 80-200 mmi) in a sufficient number of animals. […] The process of the assignment to groups (enrollment, stratified randomization) may also be referred to as randomization. The day of randomization was designated as day 0 of the experiment.
(§3) Tumors were measured and mice were weighed twice a week during the experimental period. The first day of dosing was day 1, one day after randomization (day 0).

For the next series, the system named is human NSCLC PDX LXFL-529. Description: Human NSCLC PDX model LXFL-529. As to conditions: 12.5 mg/kg i.v.
Description: as §2
Xenotransplantation: LXFL-529 established growing tumor (T3N1M0) from a primary non-small cell lung adenocarcinoma human patient.
Experimental procedure: Animals were monitored until the tumor implants reached the study volume criteria of 50-250 mm^3 (e.g., 80-200 mm^3) in a sufficient number of animals. […] The process of the assignment to groups (enrollment, stratified randomization) may also be referred to as randomization. The day of randomization was designated as day 0 of the experiment.
as §3

The next series relates to MSLN-positive cell lines. Description: In vitro cytotoxicity (IC50, Crystal Violet) on MSLN-positive cell lines (Example 11). As to conditions: for IC50: read-out: In vitro cell based potency, IC50.
For a further series, the target named is mesothelin (Homo sapiens, UniProt Q13421). Description: Surface plasmon resonance (BIAcore) binding analysis of anti-mesothelin antibodies. As to conditions: Table 15; rabbit-human chimeric antibodies, individual curves. The procedure:
Anti-mesothelin antibody binding affinity to mesothelin was measured by BIAcore (BIAcore T-100, GE healthcare, #1426075), using a series S CM5 chip. Antibody concentrations were adjusted to 1 μg/mL and mesothelin (50 μg) to 100 nM in 1×HBS-P+ buffer (GE Healthcare). Anti-human antibody capture chip was prepared according to the manufacturer's protocol using a CM5 chip with immobilization wizard. Final capture antibody levels were 8000-9000 RU, in HBS-P+. Chip was prepared for assay with five cycles of 300 sec buffer injection followed by 30 sec regeneration, all at 30 μL/min across all four flow cells. Antibodies were captured on flow cells 2-4 by sequential injections of individual ligand solutions for 90 sec at 10 μL/min. Analyte injection was done in a single-cycle kinetics manner by sequential injections of analyte solutions from low to high concentration for 240 sec each at 30 μL/min. Detection was 2-1, 3-1, 4-1. Double-referencing was performed by a sequence of identical ligand capture injections, followed by 5 buffer-only injections for 240 sec each, dissociation for 1800 sec, and regeneration as above. All ligands were analyzed for binding to mesothelin in duplicate. Kinetic analysis was performed using BIAEvaluations software using a 1:1 Langmuir fitting model. On-rate, off-rate, and affinity constants were averaged from duplicate runs.
(SPR reads the build-up and loss of mass on a sensor chip optically.)

Series [5] concerns cynomolgus monkey mesothelin. Briefly: BIAcore binding affinity, cynomolgus monkey mesothelin (Example 10). As to the method:
(§4) Binding affinity: Binding measurements were performed in HBS-P+ buffer on a BIAcore T-100 instrument. Antibodies were diluted to 1 μg/mL in HBS-P+. Samples were centrifuged at 14,000×g for 5 min at room temperature and then supernatants were transferred to a new 1.5 mL BIAcore tube and capped. Mesothelin (50 μg) was diluted to 100 nM in 1×HBS-P+ buffer, then serial diluted 5-fold at 100, 20, 4, 0.8, and 0.16 nM in BIAcore tubes and capped. Anti-human antibody capture chip was prepared according to the manufacturer's protocol using a CM5 chip with immobilization wizard. Final capture antibody levels were 8000-9000RU, in HBS-P+. Chip was prepared for assay with five cycles of 300 sec buffer injection followed by 30 sec regeneration, all at 30 μL/min across all four flow cells.
(§5) Antibodies were captured on flow cells 2-4 by sequential injections of individual ligand solutions for 90 sec at 10 μL/min. Analyte injection was done in a single-cycle kinetics manner by sequential injections of analyte solutions from low to high concentration for 240 sec each at 30 μL/min. Detection was 2-1, 3-1, 4-1. Double-referencing was performed by a sequence of identical ligand capture injections, followed by 5 buffer-only injections for 240 sec each, dissociation for 1800 sec, and regeneration as above. All ligands were analyzed for binding to mesothelin in duplicate. […]

The target in a further series is T1, rat mesothelin (Rattus norvegicus, UniProt Q9ERA7).
T1 sequence (Q9ERA7 36-600): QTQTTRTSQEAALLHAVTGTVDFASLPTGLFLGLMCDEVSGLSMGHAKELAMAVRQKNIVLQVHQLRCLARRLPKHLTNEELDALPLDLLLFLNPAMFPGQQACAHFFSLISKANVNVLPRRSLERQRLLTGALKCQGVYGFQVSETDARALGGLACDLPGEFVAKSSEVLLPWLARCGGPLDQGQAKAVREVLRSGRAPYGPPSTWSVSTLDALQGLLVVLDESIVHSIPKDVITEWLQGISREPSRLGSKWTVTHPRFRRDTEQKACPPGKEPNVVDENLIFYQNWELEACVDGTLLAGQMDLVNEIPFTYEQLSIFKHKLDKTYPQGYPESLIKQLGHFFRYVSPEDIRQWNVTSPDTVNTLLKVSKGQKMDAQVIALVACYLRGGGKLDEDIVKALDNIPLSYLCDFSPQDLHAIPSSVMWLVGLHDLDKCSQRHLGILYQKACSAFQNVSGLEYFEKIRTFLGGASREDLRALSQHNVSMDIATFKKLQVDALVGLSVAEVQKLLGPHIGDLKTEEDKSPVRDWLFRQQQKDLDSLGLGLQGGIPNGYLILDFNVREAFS
Briefly: BIAcore binding affinity, rat mesothelin (Example 10). As to the method:
as §4, §5

[6] abbreviates: Table 34: BAY 94-9343 and anetumab, MSLN-expressing CHO cells, Jurkat-Effector cells.
The mark [7] stands for this setting: NCI-H292 cells (MSLN MFI 108.6).
Where [8] appears, read: NCI-H1568/MSLN cells (MSLN MFI 4474.00).
Where [9] appears, read: OVCAR3-A1 cells (MSLN MFI 220.0).

mesothelin, sequence (Q13421 with tags, fused parts or gaps): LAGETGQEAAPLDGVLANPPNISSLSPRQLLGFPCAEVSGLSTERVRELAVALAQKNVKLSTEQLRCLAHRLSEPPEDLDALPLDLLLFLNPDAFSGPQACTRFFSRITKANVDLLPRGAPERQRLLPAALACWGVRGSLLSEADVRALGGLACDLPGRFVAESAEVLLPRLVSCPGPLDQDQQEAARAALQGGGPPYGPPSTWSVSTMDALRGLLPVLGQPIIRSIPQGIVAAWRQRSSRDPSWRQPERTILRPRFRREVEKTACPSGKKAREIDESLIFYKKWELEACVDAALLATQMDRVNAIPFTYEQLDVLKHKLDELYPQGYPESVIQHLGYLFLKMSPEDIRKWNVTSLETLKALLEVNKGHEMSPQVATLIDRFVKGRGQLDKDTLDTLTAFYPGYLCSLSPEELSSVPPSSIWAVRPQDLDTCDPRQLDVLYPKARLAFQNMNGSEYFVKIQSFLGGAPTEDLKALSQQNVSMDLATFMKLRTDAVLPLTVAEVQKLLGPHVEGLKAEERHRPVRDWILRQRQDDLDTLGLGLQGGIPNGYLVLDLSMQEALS
Description for MSLN-positive cell lines: Cytotoxicity: Cells were sub-cultured and seeded at 5,000 cells/well in complete growth medium in 96-well tissue culture plates, and incubated at 37° C., 5% CO2 overnight (16 hours). Test reagents were serially diluted 1:3 in 2 mL deep-well dilution plates, starting at 200 nM (10 dilutions total). Diluted samples (100 μL) were added to the cell plates (starting concentration of test samples at 100 nM). Plates were incubated at 37° C. 5% CO2 for an additional 5 days. Medium was then discarded, and plates were washed once with 200 μL DPBS, stained with 50 μL of 0.2% Crystal Violet solution at room temperature for 15 min, and then washed extensively with tap water. Plates were air-dried, and Crystal Violet was dissolved with 200 μL of 1% SDS solution. Plates were read at 570 nm. Data was analyzed for IC50 determination using GraphPad Prism 6.

One may read the IC50 as the concentration at which inhibition is half-maximal. On to “BAY 94-9343: ADC comprising anetumab conjugated to the maytansinoid tubulin inhibitor DM4 via a reducible SPDB linker”, for which the “cytotoxicity on MSLN-negative cell lines” value in the series on MSLN-negative cell lines was “killing on both MSLN-positive and MSLN-negative cell lines; also recorded: relatively high levels of cytotoxicity”. The “% Max Killing” value is reported as 96.82% with MSLN-negative cell lines (A431 cells (MSLN MFI 5.6)); 97.33% with MSLN-negative cell lines (BxPC3 cells (MSLN MFI 15.59)); 74.99% in the series on MSLN-negative cell lines (SKOV3 cells (MSLN MFI 20)); 64.15% with MSLN-positive cell lines (setting [7]); 75.10% with MSLN-positive cell lines (setting [8]); 100.00% with MSLN-positive cell lines (setting [9]). Moreover, the IC50 in the series on MSLN-negative cell lines (A431 cells (MSLN MFI 5.6)) worked out at 5.31 nM; in the series with MSLN-negative cell lines (BxPC3 cells (MSLN MFI 15.59)), 2.53 nM; with MSLN-negative cell lines (SKOV3 cells (MSLN MFI 20)) it was 0.81 nM; in the series with MSLN-positive cell lines (setting [7]), 3.07 nM; with MSLN-positive cell lines (setting [8]), 0.15 nM; in the series with MSLN-positive cell lines (setting [9]) it was 0.41 nM. In addition, the results for the ADCC activity entry in series [1] and in series [1] (setting [6]) were “weaker ADCC activity than anetumab” and 65.06%, respectively. Besides, the body weight change result in series [2], in series [3] and in [4] was “No body weight loss” in each case. Also, in series [4], the anti-tumor effect result is on record as “tumor regression”. The “Tq (tumor volume quadrupling time)” value in the series on human NSCLC PDX LXFA-586 is “not reached”. The anti-tumor efficacy result in the series with human NSCLC PDX LXFA-586 is reported as “robust anti-tumor efficacy similar to MORAb-109”; in the series with human NSCLC PDX LXFL-529, “no anti-tumor efficacy”. In addition, in the series with MSLN-positive cell lines, the “cytotoxicity on MSLN-positive cell lines” value is “killing on both MSLN-positive and MSLN-negative cell lines”.
The term Kd denotes the constant that tells how readily two partners part at equilibrium. With “MORAb-009: known anti-mesothelin antibody, MORAb-009 (Amatuximab)”, in the series with mesothelin, the Kd came out at 0.15 nM, the “ka” value came to 1.95e+06 M⁻¹ s⁻¹ and the “kd” value amounted to 0.000292 s⁻¹.
For “anetumab: a human anti-mesothelin antibody”, the “binding to cynomolgus monkey mesothelin” value in series [5] was “did not bind”. Besides, in the series with rat mesothelin, the “binding to rat mesothelin” value was “Nether antibody bound”. In addition, the “% Max Killing” value in the series with MSLN-negative cell lines (A431 cells (MSLN MFI 5.6)) came to 18.58%; in the series with MSLN-negative cell lines (BxPC3 cells (MSLN MFI 15.59)) it was 25.73%; with MSLN-negative cell lines (SKOV3 cells (MSLN MFI 20)) it was 31.55%; in the series with MSLN-positive cell lines (setting [7]), 15.15%; in the series on MSLN-positive cell lines (setting [8]), 5.50%; with MSLN-positive cell lines (setting [9]) it was 19.80%. Further, the IC50 with MSLN-negative cell lines (A431 cells (MSLN MFI 5.6)) was above 300 nM; with MSLN-negative cell lines (BxPC3 cells (MSLN MFI 15.59)), above 300 nM; with MSLN-negative cell lines (SKOV3 cells (MSLN MFI 20)), above 300 nM; with MSLN-positive cell lines (setting [7]) it was above 300 nM; in the series with MSLN-positive cell lines (setting [8]), above 100 nM; with MSLN-positive cell lines (setting [9]), above 100 nM. The molecule further registered an ADCC activity in series [1] (setting [6]) of 100%.
On to `COc1cc2cc(c1Cl)N(C)C(=O)C[C@H](OC(=O)[C@H](C)N(C)C(=O)CCC(C)(C)S)[C@]1(C)O[C@H]1[C@H](C)[C@@H]1C[C@@](O)(NC(=O)O1)[C@H](OC)/C=C/C=C(\C)C2` [DM4], for which the “% Max Killing” value in the series on MSLN-negative cell lines (A431 cells (MSLN MFI 5.6)) came to 92.52%; in the series on MSLN-negative cell lines (BxPC3 cells (MSLN MFI 15.59)) it was 97.98%; with MSLN-negative cell lines (SKOV3 cells (MSLN MFI 20)), 81.89%; with MSLN-positive cell lines (setting [7]), 92.40%; in the series with MSLN-positive cell lines (setting [8]), 77.49%; with MSLN-positive cell lines (setting [9]) it was 100.00%. The IC50 worked out at 0.71 nM in the series with MSLN-negative cell lines (A431 cells (MSLN MFI 5.6)); 0.57 nM in the series on MSLN-negative cell lines (BxPC3 cells (MSLN MFI 15.59)); 0.28 nM in the series with MSLN-negative cell lines (SKOV3 cells (MSLN MFI 20)); 0.24 nM in the series on MSLN-positive cell lines (setting [7]); 0.57 nM in the series on MSLN-positive cell lines (setting [8]); 0.1 nM in the series with MSLN-positive cell lines (setting [9]).
